Assay results published in ChEMBL document CHEMBL1155920, “Effects of the aryl linker and the aromatic substituent on the anti-HCV activities of aryl diketoacid (ADK) analogues” (Bioorg Med Chem Lett, 2008).

How the values were obtained:
[1] = Cytotoxicity against human Huh7 cells; format: cell-based, Huh-7
Hepatitis C virus [2] = assay: Antiviral activity against HCV subgenomic replicon harboring NS5B gene transfected in human Huh7 cells; format: functional, Hepacivirus hominis; details: Huh-7
Hepatitis C virus [3] = assay: Inhibition of recombinant HCV 1b NS5B deltac21 RNA polymerase by scintillator counting; design: species or system Hepatitis C virus subtype 1b
[4] = Inhibition of HCV RNA-dependent RNA polymerase; design: species or system Hepacivirus hominis

O=C(O)/C(O)=C/C(=O)c1cccc(OCc2ccc(Cl)cc2)c1
CC50 [1]: > 100 µM | EC50 (Hepatitis C virus [2]): > 50 µM | IC50 (Hepatitis C virus [3]): 28 µM

O=C(O)/C(O)=C/C(=O)c1ccccc1OCc1ccccc1
CC50 [1]: > 100 µM | EC50 (Hepatitis C virus [2]): 40 µM | IC50 (Hepatitis C virus [3]): 30 µM

O=C(O)/C(O)=C/C(=O)c1cccc(NCc2ccccc2)c1
IC50 [4]: 17 µM | CC50 [1]: > 100 µM | EC50 (Hepatitis C virus [2]): 28 µM | IC50 (Hepatitis C virus [3]): 28 µM

O=C(O)/C(O)=C/C(=O)c1ccccc1OCc1ccc(Cl)cc1
CC50 [1]: > 100 µM | EC50 (Hepatitis C virus [2]): 0.54 µM | IC50 (Hepatitis C virus [3]): 2 µM

O=C(O)/C(O)=C/C(=O)c1ccc(OCc2ccc(Cl)cc2)cc1
CC50 [1]: > 100 µM | EC50 (Hepatitis C virus [2]): 3.1 µM | IC50 (Hepatitis C virus [3]): 1.5 µM

O=C(O)/C(O)=C/C(=O)c1cccc(OCc2ccccc2)c1
IC50 [4]: 8 µM | CC50 [1]: > 100 µM | EC50 (Hepatitis C virus [2]): 30 µM | IC50 (Hepatitis C virus [3]): 4.6 µM

O=C(O)/C(O)=C/C(=O)c1ccc(OCc2ccccc2)cc1
CC50 [1]: > 100 µM | EC50 (Hepatitis C virus [2]): 0.66 µM | IC50 (Hepatitis C virus [3]): 8.3 µM

O=C(O)/C(O)=C/C(=O)c1cccc(NCc2ccc(Cl)cc2)c1
CC50 [1]: > 100 µM | EC50 (Hepatitis C virus [2]): 0.82 µM | IC50 (Hepatitis C virus [3]): 0.96 µM
